Legend:
[1] = tested on: anti citrullinated filaggrin ACPA; assay: Peptide inhibition assay in ELISA, plates coated with cit-filaggrin; design: species or system human; settings: sera of ACPA-positive RA patients diluted to about 50% binding OD, 2 h preincubation at room temperature
Method: (§1) Peptide inhibition assay in ELISA was used to confirm the cross-reactivity of the Cit-ME peptide to the following anti-citrullinated protein antibodies (ACPA): anti citrullinated filaggrin, anti cit-β-fibrinogen, anti cit-collagen and anti cit-vimentin. Sera were obtained from ACPA RA patients and samples with highly positive ACPA levels were selected (≥100 U/ml) using commercial CCP ELISA test (INOVA). ELISA test was performed with each of the citrullinated peptides: cit-filaggrin (HQCHQESTCitGRSRGRCGRSGS) set forth in SEQ ID NO: 3, cit-β-fibrinogen (CitPAPPPISGGGYCitACit) set forth in SEQ ID NO: 2, cit-collagen (ACitGLTGCitPGDAK) set forth in SEQ ID NO: 21 and cit-vimentin (SAVRACitSSVPGVRK) set forth in SEQ ID NO: 22. Sera were diluted in PBS to obtain a reactivity of approximately 50% binding OD under standard assay conditions. Increasing concentrations of Cit-ME peptide were added to the diluted sera and incubated for two hours at room temperature. Specimens were then assayed in ELISA plates coated with each one of the peptides. […] Thus, ACPA have binding specificity to Cit-ME.

[2] = tested on: anti cit-collagen ACPA; assay: Peptide inhibition assay in ELISA, plates coated with cit-collagen; design: species or system human; settings: sera of ACPA-positive RA patients diluted to about 50% binding OD, 2 h preincubation at room temperature
Method: as §1

[3] = tested on: TGF-β; assay: TGF-β gene expression in mononuclear cells derived from synovial fluid of RA patients, real-time PCR; format: cell-based, human; settings: 24 h, compared to the non-citrullinated peptides
Method: (§2) To assess the effect of the Cit-ME peptide (SEQ ID NO: 1) on inflammatory related genes expression, peripheral blood mononuclear cells derived from synovial fluid rheumatoid arthritis patients were incubated with the Cit-ME multi-epitope citrullinated peptide for 24 h. The effect of the peptide on gene expression was compared also to the effect of infliximab, a TNF-α blocker, which is an antirheumatic drug that acts as an anti-inflammatory compound. […] Results were determined by real-time PCR.

[4] = tested on: IFN-γ; assay: IFN-γ gene expression in mononuclear cells derived from synovial fluid of RA patients, real-time PCR; format: cell-based, human; settings: 24 h, compared to the non-citrullinated peptides
Method: as §2

[5] = tested on: pathogenic Th17 cells; assay: Pathogenic Th17 cell proportion in PBMC of RA patients, FACS; format: cell-based, human; settings: 48 hours, PMA, ionomycin and brefeldin A in last 4 hours, compared with non-citrullinated matched peptide
Method: To assess ability of the citrullinated peptides to affect the pathogenic Th17 cells population proportion, peripheral blood mononuclear cells of rheumatoid arthritis patients were cultured in the presence of citrullinated peptides, non-citrullinated peptides and Infliximab for 48 hours. In the last 4 hours phorbol12-myristate 13-acetate (PMA), ionomycin and brefeldin A were added to the culture. Thereafter cells were stained with antibodies against CD3 and IL-17. As shown in FIGS. 7A-7H, significant down-regulation in the mean percentage of pathogenic Th17 cells was detected following incubation with the citrullinated peptides: decrease of 21% (Fil-Cit; E), 5% (β-Fib-Cit; F), and 26% (Cit-ME; G) as compared with the non-citrullinated matched peptides (FIG. 7A-7C, respectively). Mean percentage of pathogenic Th17 cells in the presence of Infliximab was decreased by 48% (FIG. 7H) as compared to medium (FIG. 7D).

[6] = tested on: AIA rats; assay: Adjuvant-Induced Arthritis (AIA) in rats, paw swelling and clinical signs; format: in vivo, rat
[7] = tested on: AIA rats; assay: Histological signs of arthritis in ankle joints of AIA rats; format: in vivo, rat; settings: day 28 post disease induction, H&E, untreated 1.75±0.41
Method: To evaluate the histological signs of arthritis, rats were sacrificed and ankle joints were collected on day 28 post disease induction. The joints were fixed immediately for 24 hours in 4% paraformaldehyde, then decalcified in rapid bone decalcifier (RDO; Apex Engineering, Plainfield, Ill., USA) for 6 hours at room temperature, and further fixed in 4% paraformaldehyde before embedding in paraffin. Sections (5 μm thick) were rehydrated in a graded ethanol series and stained with haematoxylin & eosin (H&E). FIGS. 11A to 11C show representative H&E stained joint tissue sections (magnification ×100). Arrowheads denote the infiltrated zones, scale bar=200 μm. The specimens were scored for severity of inflammation in the synovium, pannus formation, cartilage, and bone erosion. A close correlation between the clinical signs and the histopathological findings was found.

[8] = tested on: CD4+CD25+FoxP3+ regulatory T cells; assay: Regulatory T cells in splenocytes of AIA rats, FACS; format: in vivo, rat
Source text: Splenocytes from rats at day 28 post disease induction were stained with anti-CD4-FITC, anti-CD25-APC, and anti-Foxp3-PE (eBioscience) mAbs and analyzed by FACS. In representative outputs as shown in FIG. 12A-C, Regulatory T cells subpopulation was higher in Cit-ME treated rats (9%), compared to 7% and 6.2% in Non-Cit-ME peptide and untreated rats, respectively. Statistical analysis of the results is shown in FIG. 12D (Cit-ME n=9, Non-Cit-ME n=11, untreated rats n=7).

[9] = tested on: CD4+IL-17+ T cells; assay: CD4+IL-17+ T cells in the spleen of AIA rats, FACS; format: in vivo, rat
Method: Distribution of pathogenic CD4^+IL-17^+ T cells in the spleen of experimental rats was assessed by FACS.

[10] = tested on: IL-17; assay: IL-17 mRNA expression in the spleen of AIA rats, RT-PCR; format: in vivo, rat; settings: spleens of AIA rats, 8 rats per treatment, compared to control
Method: To validate the effect of the peptides on CD4^+IL-17^+ populations as determined by FACS, the expression of IL-17 in the spleen was evaluated using RT-PCR. cDNA was extracted from the spleens of 8 rats per treatment (including control), and gene expression of IL-17 was assessed using the following RT-PCR primers: forward 5′-TGGCGGTTCTCCTTCAGTC-3′ (SEQ ID NO: 17) and reverse 5′-[…]-3′ (SEQ ID NO: 18). […] Thus, the RT-PCR data was in line with the FACS analyses.

[11] = tested on: T cells derived from the spleen; assay: Apoptosis of T cells from the spleen of AIA rats, Annexin V/PI staining; format: in vivo, rat; settings: gated for PI and CD4+, two independent experiments, control 13±1%
Method: To assess apoptosis of T cells derived from the spleen of treated rats, the Annexin V/PI staining method was preformed. FIGS. 14A-14C are representative histograms of cells treated with Cit-Me (FIG. 14A), non-Cit-Me (FIG. 14B) or untreated (FIG. 14C). The histograms present apoptosis measured by Annexin V^+. First, cells were gated for PI and CD4^+ and next analyzed for percentage of Annexin-V positive cells. […] A significant increase (p<0.01) in the mean apoptotic rate was determined in cells from the spleen of Cit-ME treated rats (19.5±1.8%) in comparison with Non-Cit-ME or control (13.8±1.3% and 13±1%, respectively).

For “VCitLCitSSVESTCitGRSCitPAPPPACitGLT [Cit-ME]”, the “amount of peptide sufficient to impair binding of specific ACPA to cit-filaggrin” value [1] was 10 to 200 µg, the “amount of peptide sufficient to impair binding of specific ACPA to cit-collagen” value [2] was 10 to 200 µg and the “expression of TGF-β” value [3] was “up-regulated”. For the same substance, the “expression of IFN-γ” value [4] was “down-regulated”, the “decrease in mean percentage of pathogenic Th17 cells” value [5] was 26% and the “mean paw swelling / arthritis signs” value ([6]; AIA Lewis female rats, 10 subcutaneous injections of 300 μg/rat on alternate days from day 7, up to day 21 post disease induction) was “significant reduced mean paw swelling”. The “maximum value of mean paw diameter” value ([6]; AIA rats, 8 subcutaneous injections of 300 μg per rat on alternate days from day 7, mean±SE, untreated 4.61±0.17 on day 14) was 3.81±0.11 mm, the “arthritis severity / symptoms at day 27 after disease induction” value ([6]; AIA rats, 10 subcutaneous injections of 300 μg/rat on alternate days, compared with β-Fib-Cit and untreated rats) was “reduced the arthritis severity” and the histological inflammatory score [7] was 0.54±0.2. For the same substance, the “percentage of CD4+CD25+FoxP3+ regulatory T cells subset, statistical analysis” value ([8]; spleens of AIA rats, day 28, untreated 7.17±0.31) was 8.13±0.17%, the “Regulatory T cells subpopulation, representative outputs” value ([8]; splenocytes of AIA rats, day 28 post disease induction, untreated 6.2%) was 9% and the “population of CD4+IL-17+-expressing splenocytes, statistical analysis” value ([9]; AIA rats, n=8, untreated 1.14±0.2) was 0.68±0.1. For the same substance, the “IL-17+ population, representative results” value ([9]; spleen of AIA rats, untreated 2%) was 0.6%, the “mean relative expression level of IL-17 mRNA” value [10] was “significant reduction” and the “mean apoptotic rate (Annexin-V positive cells)” value [11] was 19.5±1.8%.

— patent publication US9975944B2, “Synthetic peptides for the treatment of autoimmune diseases” (TEL HASHOMER MEDICAL RESEARCH INFRASTRUCTURE AND SERVICES …, priority 2013, dated 2018)
